# Results as given in article PMC11969009 (Nature Communications, 2025).
# “And” between values parts separate entries of the source, which are not always exact repeats. Equal values may be shown once. Read-outs that look alike come from different tables or passages of the source.
# Experiments:
# [1] = system: SARS-CoV-2 P21; set-up: species or system C57BL/6 (WT) mice; conditions: mouse, in vivo
# [2] = system: SARS-CoV-2 clinical isolate VIC001; assay: microbe, parasite or virus in culture; format: cell-based
# [3] = molecular target: SARS-CoV-2 PLpro (Severe acute respiratory syndrome coronavirus 2, UniProt P0DTD1); assay: biochemical
# [4] = molecular target: SARS-CoV PLpro (Severe acute respiratory syndrome coronavirus, UniProt P0C6X7); assay: biochemical; set-up: inhibition of SARS-CoV PLpro, UbRh dose-response replicate value: unit: %
# [5] = molecular target: MERS-CoV PLpro (Middle East respiratory syndrome-related coronavirus, UniProt K9N7C7); format: biochemical; set-up: unit: %
# [6] = molecular target: HKU1 PLpro (Human coronavirus HKU1, UniProt P0C6X2); assay: biochemical; format: biochemical; set-up: inhibition of HKU1 PLpro, UbRh dose-response replicate value: unit: %
# [7] = molecular target: OC43 PLpro (Human coronavirus OC43, UniProt P0C6X6); format: biochemical; set-up: unit not given here
# [8] = molecular target: NL63 PL2pro (Human coronavirus NL63, UniProt P0C6X5); assay: biochemical; set-up: inhibition of NL63 PL2pro, UbRh dose-response replicate value: unit: %
# [9] = molecular target: 229E PL2pro (Human coronavirus 229E, UniProt P0C6X1); assay: biochemical; set-up: inhibition of 229E PL2pro, UbRh dose-response replicate value: unit: %
# [10] = molecular target: USP21 (Homo sapiens, UniProt Q9UK80); format: biochemical
smiles,measurement,setting,value
CCO/N=C(/c1ccc2cc(OC)ccc2c1)[C@@H]1CCCN([C@H]2CC[C@@H](O)CC2)C1 [P8-100],Log2 Fold change IL-4,[1],-0.18
same,Log2 Fold change IL-9,[1],-6.78
CCO/N=C(/c1ccc2cc(OC)ccc2c1)[C@@H]1CCCN([C@H]2CC[C@@H](O)CC2)C1 [P8-150],Log2 Fold change IL-12p70,[1],-2.36
CO/N=C(/c1ccc2cc(OC)ccc2c1)[C@@H]1CCCN([C@H]2CC[C@@H](O)CC2)C1 [WEHI P4],Ext Data Fig 2f dose response (0 µM = 100),[2]; concentration 0.01 µM,109.2308 and 92.5900 and 114.0845 and 104.0541 and 89.7436
same,Ext Data Fig 2f dose response (0 µM = 100),[2]; concentration 0.02 µM,101.5385 and 95.0600 and 95.7746 and 97.2973 and 106.4103
same,Ext Data Fig 2f dose response (0 µM = 100),[2]; concentration 0.04 µM,107.6923 and 74.0700 and 95.7746 and 91.8919 and 82.0513
same,Ext Data Fig 2f dose response (0 µM = 100),[2]; concentration 0.08 µM,93.8462 and 80.2500 and 109.8592 and 101.3514 and 93.5897
same,Ext Data Fig 2f dose response (0 µM = 100),[2]; concentration 5 µM,0.0000
CO/N=C(/c1ccc2cc(OC)ccc2c1)[C@@H]1CCCN([C@H]2CC[C@@H](c3cc[nH]n3)CC2)C1 [WEHI-P70],inhibition at 0.545 µM,"[3]; Conc 0.545 µM, read-out: SARS-CoV-2 PLpro, UbRh dose-response",87.3%
same,inhibition at 1.63 µM,"[3]; Conc 1.63 µM, read-out: SARS-CoV-2 PLpro, UbRh dose-response",96.4%
same,inhibition at 4.9 µM,"[3]; Conc 4.9 µM, read-out: SARS-CoV-2 PLpro, UbRh dose-response",102%
same,IC50,[3]; IC50 (UbRh) SARS-CoV-2 PLpro,98 nM
same,inhibition at […],"[3]; read-out: SARS-CoV-2 PLpro, UbRh dose-response",65.3% and 28.1%
same,IC50,[4],94 nM
same,"inhibition of SARS-CoV PLpro, UbRh dose-response replicate value",[4],98.7016 and 99.911 and 99.674 and 98.9699 and 100.405 and 100.228
same,"SARS-CoV PLpro, UbRh hCoV Pan Activity dose-response",[4]; Conc 0.0149 µM,11.412 and 10.2397 and 10.016 and 11.8574
same,"SARS-CoV PLpro, UbRh hCoV Pan Activity dose-response",[4]; Conc 0.0448 µM,31.6247 and 32.2323 and 27.9576 and 29.7371
same,"SARS-CoV PLpro, UbRh hCoV Pan Activity dose-response",[4]; Conc 3.63 µM,97.8161 and 97.4695 and 97.9055 and 98.3366
same,"inhibition of SARS-CoV PLpro, UbRh dose-response replicate value",[4]; Conc 98 µM,99.4348 and 99.7657 and 100.125
same,inhibition at 98 µM,"[4]; Conc 98 µM, read-out: inhibition of SARS-CoV PLpro, UbRh dose-response replicate value",98.6%
same,inhibition at […],"[4]; read-out: inhibition of SARS-CoV PLpro, UbRh dose-response replicate value",99.4%
same,"inhibition of MERS-CoV PLpro, UbRh dose-response replicate value",[5],-8.262 and -6.812 and -8.29 and -8.637 and -10.7207 and -11.1211 and -8.564 and -8.857
same,"inhibition of MERS-CoV PLpro, UbRh dose-response replicate value",[5]; Conc 98 µM,-10.7242 and -11.7377 and -6.2046 and -4.979
same,"inhibition of HKU1 PLpro, UbRh dose-response replicate value",[6],-6.039 and -6.635 and 8.689 and -11.8697 and -9.542 and -8.165 and -7.3684 and -16.402
same,"inhibition of HKU1 PLpro, UbRh dose-response replicate value",[6]; Conc 98 µM,-3.115 and -4.878 and -6.077 and -8.873
same,"inhibition of OC43 PLpro, UbRh dose-response replicate value",[7],-10.4521 and -4.6612 and -0.2116 and -6.41 and -12.4786 and -1.279 and -4.6859
same,"inhibition of OC43 PLpro, UbRh dose-response replicate value",[7]; Conc 98 µM,-8.82 and -6.432 and -0.556 and -3.797
same,IC50,[8],648 nM
same,"inhibition of NL63 PL2pro, UbRh dose-response replicate value",[8],96.5311 and 98.0786 and 97.1472 and 94.6147 and 95.7019 and 95.1407
same,"NL63 PL2pro, UbRh hCoV Pan Activity dose-response",[8]; Conc 3.63 µM,86.4411 and 86.623 and 87.2454 and 84.6973
same,"inhibition of NL63 PL2pro, UbRh dose-response replicate value",[8]; Conc 98 µM,98.2213 and 99.4112 and 98.0123
same,inhibition at 98 µM,"[8]; Conc 98 µM, read-out: inhibition of NL63 PL2pro, UbRh dose-response replicate value",98.4%
same,inhibition at […],"[8]; read-out: inhibition of NL63 PL2pro, UbRh dose-response replicate value",97.7% and 95.1%
same,IC50,[9],26000 nM
same,"inhibition of 229E PL2pro, UbRh dose-response replicate value",[9],46.2136 and 48.684 and 48.4508 and 18.0648 and 22.1853 and 20.9697
same,"inhibition of 229E PL2pro, UbRh dose-response replicate value",[9]; Conc 98 µM,70.621 and 72.3972 and 73.3316
same,inhibition at […],"[9]; read-out: inhibition of 229E PL2pro, UbRh dose-response replicate value",44.4% and 18.9%
same,inhibition at 98 µM,"[9]; read-out: inhibition of 229E PL2pro, UbRh dose-response replicate value, Conc 98 µM",71.9%
same,selectivity over USP21,[10],selective over USP21
